Values quoted from earlier work, collected in paper PMC3538728 (PLoS ONE, 2013).
Read-outs that look alike come from different tables or passages of the source.

Legend:
[1] = design: method as in PMID 19527190; settings: early in preclinical studies; cited from earlier work
[2] = cited from earlier work; for outcome in phase III clinical trials: relative to placebo
γ-secretase = biological target: γ-secretase; design: method as in PMID 19694467, PMID 21141968, PMID 19402777, PMID 22323718, PMID 22798753; settings: cited from earlier work

Compound: C[C@H](NC(=O)[C@@H](O)c1cc(F)cc(F)c1)C(=O)N[C@@H]1C(=O)N(C)c2ccccc2-c2ccccc21 [LY-411,575, N2-[(2S)-2-(3,5-difluorophenyl)-2-hydroxyethanoyl]-N1-[(7S)-5-methyl-6-oxo-6,7-di hydro-5H-dibenzo[b,d]azepin-7-yl]-L-alaninamide]
- toxicity in preclinical studies [1]: toxic side-effects

Compound: NC(=O)[C@@H](CCC(F)(F)F)N(Cc1ccc(-c2ncon2)cc1F)S(=O)(=O)c1ccc(Cl)cc1 [avagacestat]
- outcome in phase II clinical studies ([2]; phase II): Dose dependent cognitive decline

Compound: CC(C)[C@H](O)C(=O)N[C@@H](C)C(=O)N[C@@H]1C(=O)N(C)CCc2ccccc21 [semagacestat]
- IC50 (γ-secretase): ~20 nM
- outcome in phase III clinical trials [2]: irreversibly advance cognitive decline
- outcome in phase III clinical trials ([2]; listed as Semagacestat): toxic side-effects and irreversible cognitive decline
- tolerance ([2]; preclinical studies and short phase I and phase II clinical trials): good tolerance
